Earlier results as cited in patent US11464768B2, “Pimavanserin alone or in combination for use in the treatment of Alzheimer's disease psychosis” (ACADIA Pharmaceuticals Inc., priority 2016, dated 2022).

Details: tartrate salt; cited from earlier work

For “urea, N-[(4-fluorophenyl)methyl]-N-(1-methyl-4-piperidinyl)-N′-[[4-(2-methylpropoxy)phenyl]methyl]-,(2R,3R)-2,3-dihydroxybutanedioate (2:1) [Pimavanserin tartrate]”, the solubility in water is given as “freely soluble in water”.
